# Measured values as given in patent publication US11331291B2, “Method of and improved composition for treating triterpene-responsive conditions, diseases or disorders” (PHOENIX BIOTECHNOLOGY, INC., priority 2017, dated 2022).
# Like-named read-outs stand apart in the source and are kept apart here.
# How the values were obtained:
# [1] = tested on: primary corticalstriatal neuronal co-cultures containing glia; assay type: cell-based
# Procedure: FIGS. 6A, 6B, 7A, 7B, 8A, and 8B depict the results of comparative cellular toxicities of the triterpenes to primary corticalstriatal neuronal co-cultures containing glia evaluated according to the example below: ursolic acid (FIGS. 6A, 6B), betulinic acid (FIGS. 7A, 7B) and oleanolic acid (FIGS. 8A, 8B). For FIGS. 6A, 7A and 8A, propidium iodide was added for one hour then the numbers of PI-positive cells were scored under automated high-content analysis on the Cellomics ArrayScan VTI. For FIGS. 6B, 7B and 8B, MTS substrate was added for two hours then co-culture wells were measured for absorbance at 450 nm using a multi-well plate reader.
# We determined whether the reduced neuroprotective activity of Compositions I and II might be due to cellular toxicity of one or more of the individual triterpenes. We conducted a direct study of the cellular toxicities of oleanolic acid (OA), ursolic acid (UA), and betulinic acid (BA) using two independent measures of cell death: propidium iodide (PI) staining for nuclear breakdown and the MTS assay for cell metabolic activity. […] The MTS assay is a well-based assay in which cleavage of a tetrazolium reporter by mitochondrial enzymes produces colorimetric readout and reports relative numbers of healthy cells.
# [2] = tested on: ARE target genes (Srx, Hmox1); experiment: ARE gene expression qPCR in rat primary corticostriatal co-cultures; assay type: cell-based
# Procedure: FIG. 3 (prior art: Van Kanegan: vide supra) depicts the results of ARE gene expression assays for Fraction 0-4 and the individual triterpenes oleanolic acid, ursolic acid, betulinic acid and uvaol (also referred to as uvalol). “X” symbols denote concentrations of compounds which induced toxicity and for which recovery of residual mRNA was insufficient to support qPCR analysis. Rat primary corticostriatal co-cultures were treated for 6 h with Fraction 0-4 (in μg/ml) or oleanolic acid, ursolic acid, betulinic acid, or uvaol (all in μM) at the concentrations indicated, then harvested and processed for qPCR analysis of the ARE target genes shown. Quantitative RNA values were normalized to the GAPDH reference control and fold-expression changes are expressed relative to the DMSO-carrier only condition (“--”) set to a value of 1. Dark bars denote statistically significant differences with respect to the DMSO-carrier only control by a Student's t-test at p<0.05.
# FIG. 4 depicts the results of expression assays for Fraction 0-4 and the individual triterpenes ursolic acid and betulinic acid at more closely-spaced concentration ranges. Rat primary corticostriatal co-cultures were treated for 6 h with Fraction 0-4 (in μg/ml) or ursolic acid and betulinic acid (in μM) at the concentrations indicated, then harvested and processed for qPCR analysis of the ARE target genes shown. Quantitative RNA values were normalized to the GAPDH reference control and fold-expression changes are expressed relative to the DMSO-carrier only condition (“--”) set to a value of 1. Dark blue bars denote statistically significant differences with respect to the DMSO-carrier only control by a Student's t-test at p<0.05.
# FIGS. 10A and 10B depict the results of comparative Srx (FIG. 10A) and Hmox1 (FIG. 10B) expression assays for PBI-05204, PBI-04711 (also referred to as Fxn 0-4), oleanolic acid (O), ursolic acid (U), betulinic acid (B) and combinations of the triterpenes present at the specified molar ratios. Quantitative RNA values were normalized to the GAPDH reference control and fold-expression changes are shown relative to the DMSO-carrier only condition set to a value of 1. Dark blue bars denote statistically significant differences with respect to the DMSO-carrier only control by a Student's t-test at p<0.05. Striped, red bars denote conditions which induced excessive levels of ARE gene expression, namely, by more than 10-fold.
# For qPCR quantification of ARE target gene expression levels, cortical and striatal neurons were plated onto 96-well plates containing mature glial cultures and cultured for 96 h. Composition was added to cultures at the indicated concentrations for 6 h. At the end of the treatment period, cells were lysed and total RNA was isolated using Absolutely RNA mini-prep kits (Agilent Technologies/Stratagene). cDNA was generated using oligo dT primers and Superscript II reverse transcriptase (Invitrogen). Resulting cDNA was used for quantitative PCR of gene transcripts using SYBR Green Real-Time PCR Master Mix (Life Technologies) and the following mouse primers, for: Gcic (forward-5′ […]-3′ (SEQ ID NO. 1) and reverse-5′-[…]-3′) (SEQ ID NO. 2), Ngo1 (forward-5′-GCCCGCATGCAGATCCT-3′ (SEQ ID NO. 3) and reverse 5′-[…]3′) (SEQ ID NO. 4), Srx (forward-5′-[…]-3′ (SEQ ID NO. 5) and reverse-5′-[…]-3′) (SEQ ID NO. 6), and Hmox1 (forward-5′-[…]-3′ (SEQ ID NO. 7) and reverse-5′-[…]-3′) (SEQ ID NO. 8) (Integrated DNA Technologies). […]
# [3] = tested on: cortical pyramidal neurons; conditions: prior art FIG. 5; equimolar basis; cited from earlier work
# [4] = tested on: ARE target genes (Srx, Hmox1); conditions: 6 h; prior art FIG. 3; compared among UA, BA, OA; cited from earlier work
SMILES,concentration leading to 50% loss of metabolic activity [1] [µM],cellular toxicity [2],"upregulation of Srx and Hmox1 ([2]; 6 h, closely-spaced concentrations, FIG. 4)","ARE gene expression induction (Srxn1) ([2]; single agent at 9 μM, relative to DMSO) [fold]",neuroprotective activity of individual triterpenes in OGD assay [3],inducing ARE gene expression as single agent [4],cellular toxicity ([2]; even at low concentration),"ARE gene expression induction ([2]; single agent, any concentration tested, FIGS. 10A, 10B)"
"C[C@H]1[C@H](C)CC[C@]2(C(=O)O)CC[C@]3(C)C(=CC[C@@H]4[C@@]5(C)CC[C@H](O)C(C)(C)[C@@H]5CC[C@]43C)[C@H]12 [UA, ursolic acid]",5 to 15,caused cellular toxicity,clear upregulation,> 10,variable activity,considerably more potent,,
"C=C(C)[C@@H]1CC[C@]2(C(=O)O)CC[C@]3(C)[C@H](CC[C@@H]4[C@@]5(C)CC[C@H](O)C(C)(C)[C@@H]5CC[C@]43C)[C@@H]12 [BA, betulinic acid]",5 to 15,,,,,,caused cellular toxicity,
"CC1(C)CC[C@]2(C(=O)O)CC[C@]3(C)C(=CC[C@@H]4[C@@]5(C)CC[C@H](O)C(C)(C)[C@@H]5CC[C@]43C)[C@@H]2C1 [OA, oleanolic acid]",,,,,higher activity than UA,relatively inactive,,not able to induce appreciable ARE gene expression
